Measured values: ChEMBL document CHEMBL3638918, “Pyrazole derivatives” (2015)

What was measured:
[1] = target: Trace amine-associated receptor 1 (Mus musculus, UniProt Q923Y8); test: Radioligand Binding: The TAAR1 radioligand 3[H](S)-4-[(ethyl-phenyl-amino)-methyl]-4,5-dihydro-oxazol-2-ylamine (described in WO 2008/098857) was used at a concentration equal to the calculated Kd value, that was usually around 0.7 nM, resulting in the binding of approximately 0.5% of the radioligand and a specific binding representing approximately 70% of the total binding. Nonspecific binding was defined as the amount of 3[H](S)-4-[(ethyl-phenyl-amino)-methyl]-4,5-dihydro-oxazol-2-ylamine bound in the presence of 10 uM unlabeled ligand. All compounds were tested at a broad range of concentrations ([…]) in duplicates.
[2] = target: Trace amine-associated receptor 1 (Rattus norvegicus, UniProt Q923Y9); test: Nonspecific binding was defined as the amount of 3-[H]-(S)-4-[(ethyl-phenyl-amino)-methyl]-4,5-dihydro-oxazol-2-ylamine bound in the presence of 10 uM unlabeled ligand. All compounds were tested at a broad range of concentrations (10 pM to 10 uM) in duplicates. The test compounds (20 ul/well) were transferred into a 96 deep well plate (TreffLab), and 180 ul of HEPES-NaOH (20 mM, pH 7.4) containing MgCl2 (10 mM) and CaCl2 (2 mM) (binding buffer), 300 ul of the radioligand 3[H](S)-4-[(ethyl-phenyl-amino)-methyl]-4,5-dihydro-oxazol-2-ylamine at a concentration of 3.3Kd in nM.; format: cell membranes
Chain of Trace amine-associated receptor 1 (Rattus norvegicus, UniProt Q923Y9) (Q923Y9 whole entry): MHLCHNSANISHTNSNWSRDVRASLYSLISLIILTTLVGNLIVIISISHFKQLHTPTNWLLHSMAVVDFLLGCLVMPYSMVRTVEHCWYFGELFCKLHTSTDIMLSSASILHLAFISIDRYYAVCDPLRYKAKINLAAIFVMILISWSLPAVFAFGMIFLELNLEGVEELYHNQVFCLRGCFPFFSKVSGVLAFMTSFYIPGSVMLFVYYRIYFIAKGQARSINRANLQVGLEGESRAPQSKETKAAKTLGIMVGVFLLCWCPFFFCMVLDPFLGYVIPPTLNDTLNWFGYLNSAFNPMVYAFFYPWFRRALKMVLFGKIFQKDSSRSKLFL

Chain of Trace amine-associated receptor 1 (Mus musculus, UniProt Q923Y8) (Q923Y8 whole entry): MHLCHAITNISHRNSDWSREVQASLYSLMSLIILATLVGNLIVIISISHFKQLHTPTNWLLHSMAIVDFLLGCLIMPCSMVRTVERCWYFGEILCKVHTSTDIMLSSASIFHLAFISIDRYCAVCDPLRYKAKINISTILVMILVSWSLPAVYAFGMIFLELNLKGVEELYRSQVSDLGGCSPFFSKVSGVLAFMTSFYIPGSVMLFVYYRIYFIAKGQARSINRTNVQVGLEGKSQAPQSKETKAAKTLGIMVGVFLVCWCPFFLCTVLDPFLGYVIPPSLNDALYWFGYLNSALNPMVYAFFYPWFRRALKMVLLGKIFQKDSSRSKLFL

Ki [1]: 6.4 nM | Ki [2]: 8.8 nM
SMILES: COc1cccc(-c2cc(C(=O)Nc3ccc([C@H]4CNCCO4)cc3)n(C)n2)c1
